According to patent US3974188A, “Process for producing cholestane type steroids” (The Lion Dentifrice Co., Ltd., priority 1974, dated 1976):

How the values were obtained:
vascular diffusion = test: Test for inhibition of the acceleration of vascular diffusion (inhibition of cutaneous chromoleaching of rat); assay type: in vivo; conditions: for Inhibition rate (%) / Mean blueing area (mm^2 ± S.E.): rat; for Mean blueing area (mm^2 ± S.E.): none: 200 ± 8.0
Excerpt: 3. Test for inhibition of the acceleration of vascular diffusion
(Test for inhibition of cutaneous chromoleaching of rat)**
**Juduh, J. D. and Willoughby, D.A.; J. Path. Buct., 83, 567 (1962)

sarcomatous growth = test: Test for inhibition of sarcomatous growth (Rat cotton pellet method); assay type: in vivo; conditions: dose 100 mg/kg, 7 rats
Excerpt: 1. Test for inhibition of sarcomatous growth
(Rat cotton pellet method)*
*Meier, R., Schuler, W. and Desaulees, P. : Experienta, 6, (1950)

mouse = test: Acute toxicity, LD50; assay type: in vivo; conditions: mouse male, 5 weeks; intraperitoneal
Excerpt: (§1) |LD50 (mouse male, 5 weeks)

Acute toxicity, LD50 = assay type: in vivo; conditions: mouse, in vivo, mouse male, 5 weeks
Excerpt: as §1

[1] = Antiinflammatory effect (overall statement); conditions: in vivo

Structure (SMILES)	Inhibition rate (%) (vascular diffusion; 50 mg/kg P.C.)	Mean blueing area (mm^2 ± S.E.) (vascular diffusion; 50 mg/kg P.C.) [mm^2]	Inhibition rate (%) (vascular diffusion; 100 mg/kg P.C.)	Mean blueing area (mm^2 ± S.E.) (vascular diffusion; 100 mg/kg P.C.) [mm^2]	Inhibition rate (%) (sarcomatous growth)	LD50 (mouse) [mg/kg]	acceleration of vascular diffusion (in words) (vascular diffusion; 100 mg/kg)	LD50 (Acute toxicity, LD50; ip, intraperitoneal) [mg/kg]	LD50 (Acute toxicity, LD50; po) [mg/kg]	antiinflammatory effect (in words) [1]
CC(C)CCC[C@@H](C)[C@H]1CC[C@H]2[C@@H]3CC[C@H]4C[C@@H](O)CC[C@]4(C)[C@H]3CC[C@]12C [C, cholestanol]	4.5	191 ± 5	6	188 ± 3	4.5	–	–	–	–	–
CC(C)CCC[C@@H](C)[C@H]1CC[C@H]2[C@@H]3CC[C@H]4C[C@@H](OP(=O)(O)O)CC[C@]4(C)[C@H]3CC[C@]12C [K2 --PEC, dipotassium cholestanyl phosphate]	–	–	–	–	10.0	–	–	–	–	–
CC(C)CCC[C@@H](C)[C@H]1CC[C@H]2[C@@H]3CC[C@H]4C[C@H](OP(=O)(O)O)CC[C@]4(C)[C@H]3CC[C@]12C [epicholestanyl phosphate]	–	–	–	–	–	1850	inhibited	–	–	–
CC(C)CCC[C@@H](C)[C@H]1CC[C@H]2[C@@H]3CC[C@H]4C[C@H](O)CC[C@]4(C)[C@H]3CC[C@]12C [EC, epicholestanol]	4.5	191 ± 9	10	180 ± 4	6.9	–	–	–	–	–
CC(C)CCC[C@@H](C)[C@H]1CC[C@H]2[C@@H]3CC[C@H]4C[C@H](OP(=O)(O)O)CC[C@]4(C)[C@H]3CC[C@]12C [dipotassium epicholestanyl phosphate]	18	164 ± 4	21	158 ± 6	21.5	–	–	1580	9300	remarkably effective as an antiinflammatory agent
